How the values were obtained:
Assay in all cases: Agar dilution MIC
Details in all cases: 35° C., 16-20 hours
[1] = system: S. aureus ATCC 29213; type: cell-based, Staphylococcus aureus
Experimental: (§1) Briefly, the compounds of invention were weighed, dissolved in dimethyl sulfoxide, serially two fold diluted in the same solvent and then incorporated into molten Mueller Hinton Agar (MHA) in a petridish just before solidification, with each petridish containing a different concentration of a compound.
(§2) The bacterial inoculum was prepared by picking 3 to 5 well isolated bacterial colonies with the same morphological appearance from an 18-24 hours old culture with an inoculating loop, transferring the growth to a tube containing 3 mL of normal saline and adjusting the turbidity of the saline suspension to 0.5 Mc Farland Turbidity Standard equivalent to a bacterial population of 1.5×10^8 colony forming units (CFU) per mL of suspension. The suspension was diluted 1:10 in saline (i.e. 0.5 mL suspension 4.5 mL saline) to get a bacterial population of 1.5×10^7 CFU/mL as inoculum.
(§3) The inoculated petridishes were incubated at 35° C. in an ambient atmosphere for 16-20 hours.

[2] = system: S. aureus ATCC 43300; type: cell-based, Staphylococcus aureus
Experimental: as §1, §2, §3

[3] = system: S. aureus MRO 00013; type: cell-based, Staphylococcus aureus
Experimental: as §1, §2, §3

[4] = system: S. aureus MRO 0001; type: cell-based, Staphylococcus aureus
Experimental: as §1, §2, §3

[5] = system: S. aureus MRO 00030; type: cell-based, Staphylococcus aureus
Experimental: as §1, §2, §3

[6] = system: S. aureus MRO 0003; type: cell-based, Staphylococcus aureus
Experimental: as §1, §2, §3

[7] = system: S. aureus MRO 00048; type: cell-based, Staphylococcus aureus
Experimental: as §1, §2, §3

[8] = system: S. aureus MRO 00055; type: cell-based, Staphylococcus aureus
Experimental: as §1, §2, §3

[9] = system: S. aureus MRO 00059; type: cell-based, Staphylococcus aureus
Experimental: as §1, §2, §3

[10] = system: S. aureus MRO 002053; type: cell-based, Staphylococcus aureus
Experimental: as §1, §2, §3

[11] = system: S. epidermidis MRO 002046; type: cell-based
Experimental: as §1, §2, §3

[12] = system: S. epidermidis MRO 02002; type: cell-based
Experimental: as §1, §2, §3

[13] = system: S. epidermidis MRO 02045; type: cell-based
Experimental: as §1, §2, §3

[14] = system: S. epidermidis MRO 02095; type: cell-based
Experimental: as §1, §2, §3

[15] = system: S. haemolyticus MRO 02064; type: cell-based
Experimental: as §1, §2, §3

[16] = system: S. saprophyticus MRO 02003; type: cell-based
Experimental: as §1, §2, §3

[17] = system: E. faecalis ATCC 29212; type: cell-based, Enterococcus faecalis
Experimental: as §1, §2, §3

[18] = system: E. faecalis ATCC 51299; type: cell-based, Enterococcus faecalis
Experimental: as §1, §2, §3

[19] = system: E. faecalis MRO 04035; type: cell-based, Enterococcus faecalis
Experimental: as §1, §2, §3

[20] = system: E. faecalis MRO 04050; type: cell-based, Enterococcus faecalis
Experimental: as §1, §2, §3

[21] = system: E. faecalis MRO 04205; type: cell-based, Enterococcus faecalis
Experimental: as §1, §2, §3

[22] = system: E. faecium ATCC 700221; type: cell-based, Enterococcus faecium
Experimental: as §1, §2, §3

[23] = system: E. faecium MRO 04037; type: cell-based, Enterococcus faecium
Experimental: as §1, §2, §3

[24] = system: E. faecium MRO 04038; type: cell-based, Enterococcus faecium
Experimental: as §1, §2, §3

[25] = system: E. faecium MRO 04198; type: cell-based, Enterococcus faecium
Experimental: as §1, §2, §3

[26] = system: M. catarrhalis ATCC 43617; type: cell-based, Moraxella catarrhalis
Experimental: as §1, §2, §3

[27] = system: M. catarrhalis ATCC 43627; type: cell-based, Moraxella catarrhalis
Experimental: as §1, §2, §3

[28] = system: M. catarrhalis ATCC 43628; type: cell-based, Moraxella catarrhalis
Experimental: as §1, §2, §3

| Structure (SMILES) | Antimicrobial Screening (MIC) [1] [µg/mL] | Antimicrobial Screening (MIC) [2] [µg/mL] | Antimicrobial Screening (MIC) [3] [µg/mL] | Antimicrobial Screening (MIC) [4] [µg/mL] | Antimicrobial Screening (MIC) [5] [µg/mL] | Antimicrobial Screening (MIC) [6] [µg/mL] | Antimicrobial Screening (MIC) [7] [µg/mL] | Antimicrobial Screening (MIC) [8] [µg/mL] | Antimicrobial Screening (MIC) [9] [µg/mL] | Antimicrobial Screening (MIC) [10] [µg/mL] | Antimicrobial Screening (MIC) [11] [µg/mL] | Antimicrobial Screening (MIC) [12] [µg/mL] | Antimicrobial Screening (MIC) [13] [µg/mL] | Antimicrobial Screening (MIC) [14] [µg/mL] | Antimicrobial Screening (MIC) [15] [µg/mL] | Antimicrobial Screening (MIC) [16] [µg/mL] | Antimicrobial Screening (MIC) [17] [µg/mL] | Antimicrobial Screening (MIC) [18] [µg/mL] | Antimicrobial Screening (MIC) [19] [µg/mL] | Antimicrobial Screening (MIC) [20] [µg/mL] | also measured |
| --- | --- | --- | --- | --- | --- | --- | --- | --- | --- | --- | --- | --- | --- | --- | --- | --- | --- | --- | --- | --- | --- |
| COC(=S)NC[C@H]1CN(c2ccc(N3CCN(C(=O)C=Cc4ccc([N+](=O)[O-])o4)CC3)c(F)c2)C(=O)O1 [Example 40, (S)—O-Methyl(3-(3-fluoro-4-(4-(3-(5-nitrofuran-2-yl)acryloyl)piperazin-1-yl)phenyl)-2-oxooxazolidin-5-yl)methylcarbamothioate] | 0.25 | 0.125 | 0.25 | 0.25 | 0.125 | 0.25 | 0.25 | 0.25 | 0.25 | 0.06 | <0.03 | 0.125 | <0.03 | 0.06 | 0.125 | 0.06 | 0.25 | 0.25 | 0.25 | 0.25 | Antimicrobial Screening (MIC) [21]: 0.25 µg/mL; Antimicrobial Screening (MIC) [22]: 0.125 µg/mL; Antimicrobial Screening (MIC) [23]: 0.25 µg/mL; Antimicrobial Screening (MIC) [24]: 0.25 µg/mL; Antimicrobial Screening (MIC) [25]: 0.25 µg/mL; Antimicrobial Screening (MIC) [26]: 0.06 µg/mL; Antimicrobial Screening (MIC) [27]: 0.125 µg/mL; Antimicrobial Screening (MIC) [28]: 0.125 µg/mL |
| COC(=S)NC[C@H]1CN(c2ccc(N3CCN(C(=O)CNS(C)(=O)=O)CC3)c(F)c2)C(=O)O1 [Example 43] | 0.5 | 0.5 | 0.5 | 0.25 | 0.5 | 0.5 | 0.5 | 0.5 | 0.5 | 0.5 | 0.25 | 0.5 | 0.5 | 0.5 | 0.5 | 0.5 | 0.25 | 0.25 | 0.25 | 0.25 | Antimicrobial Screening (MIC) [21]: 0.25 µg/mL; Antimicrobial Screening (MIC) [22]: 0.25 µg/mL; Antimicrobial Screening (MIC) [23]: 0.25 µg/mL; Antimicrobial Screening (MIC) [24]: 0.25 µg/mL; Antimicrobial Screening (MIC) [25]: 0.5 µg/mL; Antimicrobial Screening (MIC) [26]: 1 µg/mL; Antimicrobial Screening (MIC) [27]: 2 µg/mL; Antimicrobial Screening (MIC) [28]: 2 µg/mL |
| COC(=S)NC[C@H]1CN(c2ccc(N3CCN(C(=O)c4ccno4)CC3)c(F)c2)C(=O)O1 [Example 44, (S)—O-M ethyl(3-(3-fluoro-4-(4-(isoxazole-5-carbonyl)piperazin-1-yl)phenyl)-2-oxooxazolidin-5-yl)methylcarbamothioate] | 0.5 | 0.5 | 0.5 | 0.5 | 0.5 | 0.5 | 0.25 | 0.5 | 0.5 | 0.5 | 0.25 | 0.5 | 0.5 | 0.25 | 0.25 | 0.5 | 0.25 | 0.25 | 0.25 | 0.5 | Antimicrobial Screening (MIC) [21]: 0.25 µg/mL; Antimicrobial Screening (MIC) [22]: 0.25 µg/mL; Antimicrobial Screening (MIC) [23]: 0.25 µg/mL; Antimicrobial Screening (MIC) [24]: 0.25 µg/mL; Antimicrobial Screening (MIC) [25]: 0.25 µg/mL; Antimicrobial Screening (MIC) [26]: 1 µg/mL; Antimicrobial Screening (MIC) [27]: 2 µg/mL; Antimicrobial Screening (MIC) [28]: 1 µg/mL |

From US20100234390A1, “NOVEL COMPOUND AND THEIR USE” (priority 2007, published 2010)
